Values belong to the compound of their own block, whether it stands above or below them.
Assays:
[1] = Study 2: single-dose pharmacokinetics in severe hepatic impairment and matched healthy controls; conditions: for AUC(0-inf) / Cmax / Tmax / half-life: both, human, plasma, po, 20 mg, vilazodone 20 mg single oral dose; for AUC(0-inf): AUC0-∞
Procedure: The pharmacokinetics, tolerability, and safety of vilazodone were investigated in two separate trials involving participants with hepatic impairment, compared with healthy controls. An Open-label, parallel-group, single-dose pharmacokinetic studies, a single, oral dose of vilazodone (20 mg with increased hardness) was administered to participants with mild, moderate, or severe hepatic impairment or individually matched controls. Outcomes included pharmacokinetic parameters and safety (vital signs, clinical laboratory evaluations, ECG, and adverse events [AEs]). Plasma samples were analyzed using validated LC/MS/MS methods.
Data from two, open-label, parallel-group, single-dose pharmacokinetic studies investigated single-dose vilazodone (20 mg with increased hardness) in participants with hepatic impairment and normal hepatic function. The first study (Study 1) included participants with mild or moderate hepatic impairment and healthy controls. The second study (Study 2) included participants with severe hepatic impairment or healthy participants. These studies were both designed in accordance with the FDA guidance for evaluation of pharmacokinetics in the presence of hepatic impairment. The differences between the study protocols were minimal, so both methodologies are described together, with any differences noted below.
Participants were men and women, 18 to 70 years of age, with a body mass index (BMI) of 18-42 kg/m^2. Women were not pregnant or breastfeeding and agreed to utilize a medically accepted form of contraception during the study (as did men in Study 2). In Study 2, participants were also required to be non-smokers or light smokers (fewer than 10 cigarettes per day; there was no stipulation in Study 1) and to have a sitting pulse rate of 50-100 bpm at screening and prior to dosing on Day 1. […] Each healthy control was matched with a hepatically impaired participant. Control participants in the Study 1 were matched with a hepatically impaired individual according to age (±10 years), sex, and BMI (±15%). Control participants in Study 2 were matched with a hepatically impaired individual according to age (±5 years), sex, and weight (±10%).
Participants with hepatic dysfunction were classified according to the Child-Pugh hepatic dysfunction staging system as having mild (5-6 points) or moderate (7-9 points) hepatic impairment (Study 1), or severe impairment (10-15 points; Study 2). Participants with severe impairment also had chronic liver disease and/or compensated cirrhosis, as evidenced by liver biopsy, computerized tomography or ultrasonic evidence of hepatic fibrosis, clinical evidence of chronic liver disease, or a colloid shift on a liver-spleen scan. Exclusion criteria included the following: a clinical diagnosis or history of depression; treatment with antidepressants, anxiolytics, psychoactive medications (including herbal supplements), other serotonergic drugs, or drugs that inhibit CYP3A4 (eg, ketoconazole, diltiazem, macrolide antibiotics); a hypersensitivity to vilazodone or other SSRIs or 5-HT agonists; history or evidence of alcohol or substance abuse, cancer, human immunodeficiency virus, hepatitis B (Study 1 and healthy controls, both studies) hepatitis C (healthy controls, both studies), or other clinically significant illnesses or medical conditions. Participants with severe hepatic impairment were excluded if they had bleeding diathesis, advanced ascites requiring large-volume paracentesis within 1 week of dosing, esophageal bleeding within the previous 8 weeks, history of portosystemic shunt or hepatic transplant, or evidence of hepatic encephalopathy, hepatorenal syndrome, or other evidence of rapid hepatic deterioration.
Participants were not allowed to have previously taken vilazodone or participated in any clinical investigation requiring repeated blood draws within 60 days of dosing, or donated blood or plasma within 60 or 30 days, respectively.

clinical = experiment: clinical; parameters: species or system human; conditions: in vivo
Procedure: An open-label, multiple-dose, single-sequence study to evaluate the effect of steady-state carbamazepine XR, 400 mg once daily, a CYP3A4 substrate and inducer, on the pharmacokinetics of steady-state vilazodone 40 mg tablets once daily, with hardness of more than 10 kp and less than 14 kp, preferably about 12 kp as shown in Table 3 (No Tablet Breakage). Vilazodone was co-administered with carbamazepine XR (extended release formulation). Carbamazepine is an antiepileptic drug approved for the treatment of psychomotor and grand mal seizures is metabolized by CYP3A4, and is a CYP3A4 inducer.
All subjects were healthy, nonsmoking male or female volunteers who were 18-45 (Study 2) years of age. Inclusion and exclusion criteria were typical of the criteria used in pharmacokinetic studies in healthy volunteers as known in the art. Inclusion criteria used included agreement to use an effective measure of contraception, body mass index (BMI)>18 and ≦30 kg/m^2 (BMI=18 allowed), normal or clinically non-significant results on physical examination, medical history, serum chemistry, hematology, and urinalysis; negative hepatitis B antigen and C antibody tests, and negative HIV test at screening. Exclusion criteria included clinically significant electrocardiogram results or QT prolongation, clinically significant disease state, history of alcohol abuse, ingestion of food, drink, or drug that may interfere with CYP enzyme activity (e.g., cruciferous vegetables, caffeine, alcohol), known sensitivity to study drug or other drugs from the same class, and use of prohibited concomitant prescription or over-the counter medications.
All volunteers received 4 treatments (A, B, C, and D) in the same, fixed sequence: Treatment A consisted of vilazodone alone on Days 1-9 and was followed by a 14-day washout, Treatment B was carbamazepine XR alone for 19 days (Days 24-42), Treatment C was vilazodone plus carbamazepine XR for 9 days (Days 43-51), and Treatment D was carbamazepine alone for 3 days (Days 52-54). Once-daily doses of study drug were administered in the morning after breakfast; twice-daily doses were administered in the morning after breakfast and 12 hours later in the evening after dinner Study drug was administered within 30 minutes after the end of the corresponding meal.
Blood samples to determine plasma concentrations of vilazodone, M17 (the metabolite of vilazodone), carbamazepine, and carbamazepine-10,11-epoxide (one of the pharmacologically active metabolites of carbamazepine) were collected into tubes pretreated with K2EDTA. For vilazodone and M17 analyses, blood samples (approximately 6 mL) were collected at pre-dose on Days 1, 7, 8, 49, and 50. […] For the analyses of carbamazepine and carbamazepine-10,11-epoxide, blood samples were collected at pre-dose on Days 24, 40, 41, 49 and 50.
Blood samples were centrifuged at no less than 2500 g for 10 minutes at 4° C. within 30 minutes of the sample draw. Plasma was harvested and transferred to polypropylene tubes and flash frozen in a dry ice bath with isopropyl alcohol or methanol. Samples for vilazodone analyses were stored at approximately −70° C. and analyzed. Samples for carbamazepine analyses were stored at −20° C. and analyzed.
Plasma samples were analyzed for vilazodone, M17, carbamazepine and/or carbamazepine-10,11-epoxide concentrations using liquid chromatography coupled with tandem mass spectrometry (LC/MS/MS). For vilazodone and M17, analytes of interest were detected by electrospray ionization mass spectrometry in the negative ion multiple reaction monitoring mode. The assay was linear in the concentration range of 0.5 to 250 ng/mL for vilazodone and 0.25 to 125 ng/mL for M17.
Based on 50 ìL of human plasma with K2EDTA as the anticoagulant, the lower limit of quantification (LLOQ) was 0.5 ng/mL for vilazodone and 0.25 ng/mL for M17. […]

[2] = Control matched to Severe Impairment n = 8
[3] = Severe Impairment n = 4 (who did not vomit)

AUC(0-inf) [1, 2]: 51.4 ± 21.4 ng·h/mL
AUC(0-inf) [1, 3]: 29.9 ± 8.15 ng·h/mL
Cmax [1, 2]: 1.95 ± 0.56 ng/mL
Cmax [1, 3]: 1.64 ± 0.56 ng/mL
Tmax ([1]; Tmax (mean), Control matched to Severe Impairment n = 8): 6 ± 4.14 h
Tmax ([1]; Tmax (mean), Severe Impairment n = 4 (who did not vomit)): 4.25 ± 1.26 h
Tmax ([1]; Tmax, Median, Control matched to Severe Impairment n = 8): 5 h
Tmax ([1]; Tmax, Median, Severe Impairment n = 4 (who did not vomit)): 4 h
half-life ([1]; t1/2, Control matched to Severe Impairment n = 8): 17.4 ± 4.25 h
half-life ([1]; t1/2, Severe Impairment n = 4 (who did not vomit)): 17.8 ± 9.57 h
ratio of M17 to vilazodone (AUC0-∞) ([1]; normal controls): 0.07
ratio of M17 to vilazodone (AUC0-∞) ([1]; severe hepatic impairment): 0.05
mean AUC0-∞ lower than in normal controls ([1]; severe impairment (who did not vomit) vs normal controls, vilazodone 20 mg single dose): approximately 42%
SMILES: N#Cc1ccc2[nH]cc(CCCC(=O)O)c2c1 [M17]

tmax, Median (min-max) (clinical; human): 12.0 h
Cavg, ss, Mean (SD) (clinical): 0.6 (0.2) μg/mL
SMILES: NC(=O)N1c2ccccc2C2OC2c2ccccc21 (centres unmarked) [carbamazepine-10,11-epoxide]

concentration at 42 day (clinical; both sexes, human, Cavg, ss, Mean (SD)): 5500 ng/mL
Tmax (clinical; both sexes, human, tmax, Median (min-max)): 10 h
SMILES: NC(=O)N1c2ccccc2C=Cc2ccccc21 [Carbamazepine, carbamazepine]
